Patent US11384075B2, “Quinolinone compounds” (Janssen Pharmaceutica NV, priority 2017, dated 2022)
Where two headings read alike, the source gives them in different places.

What was measured:
[1] = target: T1, human FGFR3 wild type enzyme (cytoplasmic domain) (Homo sapiens, UniProt P22607); assay: FGFR3 wild type mobility shift assay (enzymatic assay); type: biochemical; settings: 75 μM ATP, 50 minutes at 30° C., Caliper EZ reader II
T1 construct: human FGFR3 wild type enzyme (cytoplasmic domain, from Carna Biosciences); purchased Carna Biosciences
T1 sequence (P22607 397-806 limits assumed): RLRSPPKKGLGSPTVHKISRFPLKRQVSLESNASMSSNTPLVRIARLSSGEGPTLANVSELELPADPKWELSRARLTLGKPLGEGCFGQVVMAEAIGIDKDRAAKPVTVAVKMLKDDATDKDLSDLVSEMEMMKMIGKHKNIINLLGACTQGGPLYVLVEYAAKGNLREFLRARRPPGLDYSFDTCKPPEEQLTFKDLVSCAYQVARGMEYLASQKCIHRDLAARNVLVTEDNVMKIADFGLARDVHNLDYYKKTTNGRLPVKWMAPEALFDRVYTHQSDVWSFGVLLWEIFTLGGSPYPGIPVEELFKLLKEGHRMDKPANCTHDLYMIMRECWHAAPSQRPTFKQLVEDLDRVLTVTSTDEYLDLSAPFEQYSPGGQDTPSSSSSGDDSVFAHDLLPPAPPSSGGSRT
Procedure: FGFR3 Wild Type Mobility Shift Assay (Enzymatic Assay)
(§1) In a final reaction volume of 25 μL, 0.04 ng/μL human FGFR3 wild type enzyme (cytoplasmic domain, from Carna Biosciences) was incubated with 75 μM ATP, 1 μM FL-peptide 30 substrate and 250 nL of testing compound (1% DMSO final) in assay buffer (100 mM HEPES pH 7.4, 10 mM MgCl2, 0.003% Brij35, 1 mM DTT). After incubation for 50 minutes at 30° C. the reaction was stopped with 10 μL of 0.5M EDTA pH 8.0, and then 25 μL of reaction mixture was transferred to reading plate and measured on Caliper EZ reader II. The substrate-product conversion rate was used as raw data for normalization and concentration-response curve (10 dose points with 4× serial dilution, starting with 10 μM) was plotted using Prism to calculate IC50 (M), pIC50 (−log IC50) and HillSlope value.

[2] = target: T2, NIH/3T3 cells overexpressing FGFR3 WT-TACC3 fusion protein (Homo sapiens, UniProt P22607); assay: NIH/3T3 FGFR3 WT-TACC3 cell proliferation assay; type: cell-based; settings: 72-hr incubation, CellTiter Glo, starting with 10 μM; read-out: NIH/3T3 FGFR3 WT-TACC3 CTG (IC50)
T2 construct: NIH/3T3 FGFR3 WT-TACC3 CTG (IC50); other: 72-hr incubation, CellTiter Glo, starting with 10 μM; fused on or other part: Q9Y6A5 (Transforming acidic coiled-coil-containing protein 3)
T2 sequence (P22607 whole entry, change not shown, the tested form may be a part): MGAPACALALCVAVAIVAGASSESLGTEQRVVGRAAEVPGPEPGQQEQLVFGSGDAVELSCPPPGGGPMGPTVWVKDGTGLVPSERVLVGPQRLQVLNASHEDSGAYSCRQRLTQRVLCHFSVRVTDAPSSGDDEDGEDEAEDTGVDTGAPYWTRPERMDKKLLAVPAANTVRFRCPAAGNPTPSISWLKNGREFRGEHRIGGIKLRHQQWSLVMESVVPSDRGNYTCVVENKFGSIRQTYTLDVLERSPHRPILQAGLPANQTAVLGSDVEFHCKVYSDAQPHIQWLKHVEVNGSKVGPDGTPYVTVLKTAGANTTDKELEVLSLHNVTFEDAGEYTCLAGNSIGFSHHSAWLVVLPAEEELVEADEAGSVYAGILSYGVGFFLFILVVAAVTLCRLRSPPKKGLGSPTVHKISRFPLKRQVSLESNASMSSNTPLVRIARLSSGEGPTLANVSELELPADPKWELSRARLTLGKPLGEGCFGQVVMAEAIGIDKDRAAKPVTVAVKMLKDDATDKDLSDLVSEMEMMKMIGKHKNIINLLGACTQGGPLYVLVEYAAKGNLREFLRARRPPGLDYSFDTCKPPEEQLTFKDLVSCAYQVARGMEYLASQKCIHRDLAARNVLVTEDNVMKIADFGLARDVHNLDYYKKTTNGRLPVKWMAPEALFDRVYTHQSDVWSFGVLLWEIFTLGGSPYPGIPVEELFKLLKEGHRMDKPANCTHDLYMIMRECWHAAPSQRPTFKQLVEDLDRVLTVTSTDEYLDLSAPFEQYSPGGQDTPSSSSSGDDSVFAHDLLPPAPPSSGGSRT
Procedure: NIH/3T3 FGFR3 WT-TACC3 Cell Proliferation Assay
(§2) In day 1, 90 μL of cell suspension (NIH/3T3 cells overexpressing FGFR3 WT-TACC3 fusion protein) (total 30,000 cells per well in growth medium (DMEM containing 1% Glutamax, 10% FBS and 1% Pen/Strep)) was seeded in a 96-well plate and then incubated overnight at 37° C. and 5% CO2. In day 2, 10 μL of growth medium containing 10-fold stock solution of testing compound was added into cell cultures (9 dose points with 4× serial dilution, starting with 10 μM, 0.1% DMSO final). After 72-hr incubation at 37° C. and 5% CO2, in day 5 a volume of 50 μL CellTiter Glo (CTG) reagent was added into cell-containing 96-well plate and the plate was incubated at room temperature for 10 minutes before RLUs (relative light unit) were measured on a microplate reader with luminescence detection module. The RLU value was normalized to survival % and concentration-response curve was plotted using Prism to calculate IC50 (M), pIC50 (−log IC50) and HillSlope value.

[3] = system: NIH/3T3 cells transfected with the same control vector; assay: NIH/3T3 mock cell proliferation assay (counter assay, general toxicity); type: cell-based; settings: 72-hr incubation, CellTiter Glo, starting with 30 μM, counter assay for general toxicity, read-out: NIH/3T3 MOCK CTG (IC50)
Procedure: NIH/3T3 Mock Cell Proliferation Assay
as §2, with “cells transfected with the same control vector as in the above two proliferation assays)” for “cells overexpressing FGFR3 WT-TACC3 fusion protein)”, “with 3×” for “with 4×”, “with 30” for “with 10”, “μM, 0.3%” for “μM, 0.1%”

[4] = target: T3, human FGFR3 V555M enzyme (cytoplasmic domain carrying V555M mutation) (Homo sapiens, UniProt P22607, V555M); assay: FGFR3 V555M mobility shift assay (enzymatic assay); type: biochemical; settings: 30 μM ATP, 45 minutes at 30° C., Caliper EZ reader II
T3 construct: human FGFR3 V555M enzyme (cytoplasmic domain carrying V555M mutation, from Carna Biosciences); purchased Carna Biosciences
T3 sequence (P22607 397-806 V555M limits assumed): as the sequence (P22607 397-806 limits assumed) above, with V159M counted along it
Procedure: FGFR3 V555M Mobility Shift Assay (Enzymatic Assay)
as §1, with “FGFR3 V555M” for “FGFR3 wild type”, “(cytoplasmic domain carrying V555M mutation,” for “(cytoplasmic domain,”, “with 30” for “with 75”, “for 45” for “for 50”

[5] = target: T4, NIH/3T3 cells overexpressing FGFR3 V555M-TACC3 fusion protein (Homo sapiens, UniProt P22607, V555M, cells depend on it); assay: NIH/3T3 FGFR3 V555M-TACC3 cell proliferation assay; type: cell-based; settings: 72-hr incubation, CellTiter Glo, starting with 10 μM; read-out: NIH/3T3 FGFR3 V555M-TACC3 CTG (IC50)
T4 construct: NIH/3T3 FGFR3 V555M-TACC3 CTG (IC50); other: 72-hr incubation, CellTiter Glo, starting with 10 μM; fused on or other part: Q9Y6A5 (Transforming acidic coiled-coil-containing protein 3)
T4 sequence (P22607 whole entry V555M, the tested form may be a part): as the sequence (P22607 whole entry, change not shown, the tested form may be a part) above, with V555M counted along it
Procedure: NIH/3T3 FGFR3 V555M-TACC3 Cell Proliferation Assay
as §2, with “V555M-TACC3” for “WT-TACC3”

Row | SMILES | IC50 [1] [nM] | GI50 [2] [nM] | IC50 [4] [nM] | GI50 [5] [nM] | IC50 ([3]; Mus musculus, NIH3T3, 72 h) [nM] | IC50 [3] [nM]
1 | CC(Nc1c(-c2nc3cc(C(F)(F)F)c(N4CCOCC4)cc3[nH]2)c(=O)[nH]c2ccccc12)c1ncccn1 (single isomer, unassigned) [Compound 45, (S*)-3-(6-morpholino-5-(trifluoromethyl)-1H-benzo[d]imidazol-2-yl)-4-((1-(pyrimidin-2-yl)ethyl)amino)quinolin-2(1H)-one] | 1.17 | 25.3 | 0.483 | 12.2 | 12700 | –
2 | COc1ccnc(C(C)Nc2c(-c3nc4ccc(N5CCOCC5)cc4[nH]3)c(=O)[nH]c3ccccc23)c1 (single isomer, unassigned) [Compound 48a, (S*)-4-((1-(4-methoxypyridin-2-yl)ethyl)amino)-3-(6-morpholino-1H-benzo[d]imidazol-2-yl)quinolin-2(1H)-one] | 19.9 | 454 | 5.41 | 547 | 5670 | –
3 | CC(Nc1c(-c2nc3ccc(N4CCOCC4)cc3[nH]2)c(=O)[nH]c2ccccc12)c1cocn1 (single isomer, unassigned) [Compound 51a, (S*)-3-(6-morpholino-1H-benzo[d]imidazol-2-yl)-4-((1-(oxazol-4-yl)ethyl)amino)-quinolin-2(1H)-one] | 1.31 | 30.1 | 0.237 | 30.2 | 1180 | –
4 | COC(=O)C1CN(c2ccc3nc(-c4c(N[C@@H](C)c5ccccn5)c5ccccc5[nH]c4=O)[nH]c3c2)CCO1 (single isomer, unassigned) [Compound 61, (S*)-methyl 4-(2-(2-oxo-4-(((S)-1-(pyridin-2-yl)ethyl)amino)-1,2-dihydroquinolin-3-yl)-1H-benzo[d]imidazol-6-yl)morpholine-2-carboxylate] | 2.15 | 113 | 1.13 | 111 | – | 1840
5 | COC(=O)C1CN(c2ccc3nc(-c4c(N[C@@H](C)c5ccccn5)c5ccccc5[nH]c4=O)[nH]c3c2)CCO1 (single isomer, unassigned) [Compound 62, (R*)-methyl 4-(2-(2-oxo-4-(((S)-1-(pyridin-2-yl)ethyl)amino)-1,2-dihydroquinolin-3-yl)-1H-benzo[d]imidazol-6-yl)morpholine-2-carboxylate] | 2.91 | 389 | 1.21 | 451 | – | 12700

Stronger by IC50 [1], values ahead:

Row | IC50 [1] [nM] | GI50 [2] [nM] | IC50 [4] [nM] | GI50 [5] [nM] | SMILES | IC50 ([3]; Mus musculus, NIH3T3, 72 h) [nM] | IC50 [3] [nM]
6 | 1 | 20.3 | 0.643 | 9.93 | CC(Nc1c(-c2nc3ccc(N4CCC(OC(F)(F)F)CC4)cc3[nH]2)c(=O)[nH]c2ccccc12)c1ncccn1 (single isomer, unassigned) [Compound 43a, (S*)-4-((1-(pyrimidin-2-yl)ethyl)amino)-3-(6-(4-(trifluoromethoxy)piperidin-1-yl)-1H-benzo[d]imidazol-2-yl)quinolin-2(1H)-one] | 8270 | –
7 | 0.858 | 23.1 | 0.208 | 6.69 | CC(Nc1c(-c2nc3ccc(N4CCOCC4)cc3[nH]2)c(=O)[nH]c2ccccc12)c1cscn1 (single isomer, unassigned) [Compound 52a, (S*)-3-(6-morpholino-1H-benzo[d]imidazol-2-yl)-4-((1-(thiazol-4-yl)ethyl)amino)-quinolin-2(1H)-one] | 1430 | –
8 | 0.668 | 7.08 | 0.485 | 5.01 | CC(Nc1c(-c2nc3ccc(N4CCN(CCC(F)(F)F)CC4)cc3[nH]2)c(=O)[nH]c2ccccc12)c1ncccn1 (single isomer, unassigned) [Compound 41a, (S*)-4-((1-(pyrimidin-2-yl)ethyl)amino)-3-(6-(4-(3,3,3-trifluoropropyl)piperazin-1-yl)-1H-benzo[d]imidazol-2-yl)quinolin-2(1H)-one] | 6970 | –
9 | 0.545 | 4.19 | 0.382 | 28.9 | CC(Nc1c(-c2nc3cc(C(F)(F)F)c(N4CCC(C(=O)O)CC4)cc3[nH]2)c(=O)[nH]c2ccccc12)c1ncccn1 (single isomer, unassigned) [Compound 58, (S*)-1-(2-(2-oxo-4-((1-(pyrimidin-2-yl)ethyl)amino)-1,2-dihydroquinolin-3-yl)-5-(trifluoromethyl)-1H-benzo[d]imidazol-6-yl)piperidine-4-carboxylic acid] | 8240 | –
10 | 0.47 | 9.9 | 0.186 | 8.64 | CC(Nc1c(-c2nc3ccc(-c4cnn(C)c4)cc3[nH]2)c(=O)[nH]c2ccccc12)c1ncccn1 (single isomer, unassigned) [Compound 53a, (S*)-3-(6-(1-methyl-1H-pyrazol-4-yl)-1H-benzo[d]imidazol-2-yl)-4-((1-(pyrimidin-2-yl)ethyl)amino)quinolin-2(1H)-one] | 1690 | –
11 | 0.244 | 9.46 | 0.147 | 3.98 | CC(Nc1c(-c2nc3ccc(N4CC5CCC(C4)O5)cc3[nH]2)c(=O)[nH]c2ccccc12)c1ncccn1 (single isomer, unassigned) [Compound 44a, 3-(6-(8-oxa-3-azabicyclo[3.2.1]octan-3-yl)-1H-benzo[d]imidazol-2-yl)-4-(((S*)-1-(pyrimidin-2-yl)ethyl)amino)quinolin-2(1H)-one] | 3040 | –
